Data as given in patent US10786505B2, “Administration of NEDD8-activating enzyme inhibitor and chemotherapeutic agents” (Millennium Pharmaceuticals, Inc., priority 2013, dated 2020).

Key:
Type in all cases: in vivo, mice
[1] = tested on: NCI-H1650 xenograft model; test: Combination of docetaxel and MLN4924 in NCI-H1650 xenograft model
Excerpt: NCI-H1650 (2×10^6) tumor cells in RPMI-1640 media are mixed with an equal volume of Matrigel (BD Biosciences) and aseptically injected into the subcutaneous space in the right dorsal flank of Balb/c Nude mice (age 4-6 weeks, Shanghai SINO-British SIPPR/BK Lab Animal Ltd.) using a 25-gauge needle.
(§1) Docetaxel (Henry Schein, Inc., Pittsburgh Pa., Qilu Pharmaceutical Co., Ltd., Jinan, Shandong, China, and Sanofi-Aventis) is formulated in 0.9% saline and administered by intravenous injection (IV) once weekly (QW) at 5 mg/kg or 10 mg/kg.
(§2) Tumors are measured twice weekly using a vernier caliper. Tumor volumes are calculated using standard procedures (0.5×(length×width^2)). […] Tumor size and body weight are measured approximately twice a week for the duration of the study. Mice are euthanized when their tumor volume reached 10% of their body weight, or when the average tumor volume of a treatment or control group reached approximately 2000 mm^3. Tumor growth continued to be monitored after the dosing period in some studies. Average tumor volume is reported as a function of time for selected groups of selected studies in Figures A, B, and C.
(§3) Measurements from day 0 to 18, 21 or 22 are analyzed as specified in Tables 4-9. All tumor volumes have a value of 1 added to them before log10 transformation. For each animal, the log tumor volume at day 0 is subtracted from the log tumor volume on the subsequent days. This difference vs. time is used to calculate an area under the curve (AUC) for each animal using the trapezoid rule. […] The synergy score for the combination of agents A and B is defined as 100*(mean(AUCAB)−mean(AUCA)−mean(AUCB)+mean(AUCctl))/mean(AUCctl): where AUCAB, AUCA, AUCB, and AUCctl are the AUC values for animals in the combination group, the A group, the B group, and the control group, respectively. The standard error of the synergy score is computed based on the variation in the AUC values among the animals. […] If the P-value is above 0.05, then the combination is considered to be additive. If the P-value is below 0.05, and the synergy score is less than zero, then the combination is considered to be synergistic. […] Otherwise, the combination is classified as antagonistic.

[2] = tested on: LXFE409 xenograft model; test: Combination of docetaxel or carboplatin and MLN4924 in LXFE409 xenograft model; conditions: for average tumor volume day 21: LXFE409 xenograft
Experimental: LXFE409 squamous non small cell lung cancer tumor fragments are implanted into the subcutaneous space in the flank of female NMRI nu/nu mice (5-7 weeks, Janvier Labs, Saint Berthevin, France).
as §1
Carboplatin (CARBOplatin Injection, Hospira, Inc., Qilu Pharmaceutical Co., Ltd. Jinan, Shandong, China, and Teva Gry-Pharma GmbH, Ulm, Germany) is formulated in 0.9% saline and administered by IP injection once weekly (QW) at 50 mg/kg. The once weekly schedule is also described as every 7 days (Q7D).
as §2, §3

[3] = tested on: NCI-H82 xenograft model; test: Combination of cisplatin and MLN4924 in NCI-H82 xenograft model
Experimental: NCI-H69 or NCI-H82 small cell lung tumor fragments (30- to 40-mg) are implanted into the subcutaneous space in the area of the right flank of NCr nu/nu mice (7-10 weeks, Charles River Laboratories, Inc, Frederick Md. or Wilmington, Mass.) using a 12-gauge trocar.
as §2, §3

[4] = 120 mg/kg MLN4924 Q2Dx3/week SC

SMILES: NS(=O)(=O)OC[C@@H]1C[C@@H](n2ccc3c(N[C@H]4CCc5ccccc54)ncnc32)C[C@@H]1O [MLN4924, ((1S,2S,4R)-4-(4-((1S)-2,3-dihydro-1H-inden-1-ylamino)-7H-pyrrolo[2,3-d]-pyrimidin-7-yl)-2-hydroxycyclopentyl)methyl sulfamate]
- average tumor volume day 21 ([1]; 90 mg/kg MLN4924 Q2Dx3/week SC): 776.8 mm^3
- average tumor volume day 21 [1, 4]: 774.2 mm^3
- tumor course after the treatment period, to end of study on day 95 (in words) ([2]; LXFE409 sqNSCLC model, FIG. 4, MLN4924 120 mg/kg SC Q2Dx3/week for 3 weeks, docetaxel 10 mg/kg IV QW for 3 weeks, single agents or combination): regrew after the treatment period ended
- average tumor volume day 21 ([2]; 90 mg/kg MLN4924 Q2Dx3/week SC): 707.5 mm^3
- average tumor volume day 21 [2, 4]: 167.1 mm^3
- average tumor volume day 22 ([3]; 60 mg/kg MLN4924 BID Q2Dx3/week SC): 861.9 mm^3
- average tumor volume day 22 ([3]; 60 mg/kg MLN4924 BID Q3Dx2/week SC): 783.3 mm^3
